The subject of series [1] is MDA-MB-468, SKBr3, LNCaP, MOLM-13, Kasumi-1, OCI-Ly7 and HuH7 cells. Kind of series: Growth inhibition in a panel of cancer cells. It counts as cell-based, human. Particulars: growth over 72 h. On the procedure:
Tested were MDA-MB-468 triple-negative breast cancer cells, SKBr3 HER2+breast cancer cells, LNCaP mAR+prostate cancer cells, MOLM-13 and Kasumi-1 acute myeloid leukemia cells, OCI-Ly7 diffuse large B-cell lymphoma cells and HuH7 hepatocellular carcinoma cells. […] In cancer cells, half growth inhibitory concentrations ([…]) recorded for YK5 were in high agreement with its potency to degrade Hsp90 onco-clients.
Growth Inhibition Assay. Antiproliferative effects of inhibitors were evaluated using the dye Alamar blue. This reagent offers a rapid objective measure of cell viability in cell culture, and it uses the indicator dye resazurin to measure the metabolic capacity of cells, an indicator of cell viability. Briefly, cells were plated on Costar 96-well plates. For attached cells (such as SKBr3, MDA-MB-468, LNCaP, MRCS), 8,000 cells/well were used. For suspension cells (such as MOLM-13, Kasumi-1, OCI-Ly7, PBL), 20,000 cells/well were plated. Cells were allowed to incubate for 24 h at 37° C. before drug treatment. Drugs were added in triplicates at the indicated concentrations, and the plate was incubated for 72 h. Alamar Blue (440 μM) was added, and the plate read 6 h later using the Analyst GT (Fluorescence intensity mode, excitation 530 nm, emission 580 nm, with 560=dichroic mirror). Results were analyzed using the Softmax Pro software. The percentage cell growth inhibition was calculated by comparing fluorescence readings obtained from treated versus control cells, accounting for initial cell population (time zero).

In series [2] the test system is PBLs, CCD18Co and MRC-5 normal cells. Kind of series: Cytotoxicity in normal cells. It counts as cell-based. On the procedure:
FIG. 14. YK5 has a higher affinity for tumor Hsp70s and selectively kills cancer cells. (a-c) Cells were treated with the indicated concentrations of inhibitors for the times presented, and metabolically viable cells by Alamar blue uptake as described in Methods (a). Molecular markers of apoptosis (PARP and caspase-3 cleavage) were analyzed in cells treated for 24 h with indicated concentrations of inhibitors, by western blotting (b, c). Morphology of cells treated for 24 h with vehicle or the indicated inhibitors was analyzed by light microscopy (c). […]
Because Hsp70 assists in house-keeping functions of normal cells, such as folding of newly synthesized polypeptides, refolding of misfolded proteins, and translocation of proteins through biological membranes, it remains unclear whether pharmacologic interventions which target both Hsp70 and Hsc70 isoforms, such as YK5, are non-toxic to these cells. To address this matter, the cytotoxic effect of YK5 in a panel of normal cells was evaluated, namely peripheral blood leukocytes (PBLs) obtained from healthy blood donors, and cultured normal fibroblasts, such as the colon cells CCD18Co and the lung MRC-5 (FIG. 14a-c). […]
Growth Inhibition Assay. Antiproliferative effects of inhibitors were evaluated using the dye Alamar blue. […]

Structures are written as SMILES.

Turning to `C=CC(=O)Nc1cc(N)nc(Sc2c(OC)nc(N3CCN(C)CC3)nc2OC)n1` [YK5, N-(6-amino-2-(4,6-dimethoxy-2-(4-methylpiperazin-1-yl)pyrimidin-5-ylthio)pyrimidin-4-yl)acrylamide], the “growth of all tested cancer cells” value in series [1] is listed as “inhibited the growth of all tested cancer cells”. The “cell death in normal cells” value in series [2] is listed as “minimal”.

(Values after patent publication US9567318B2, “Substituted pyrimidine compounds and uses thereof” (Memorial Sloan-Kettering Cancer Center, priority 2009, dated 2017).)
